Results taken from EPA's ToxValDB 9.5.
Values joined by “and” are separate entries in the source; they are usually repeats but may differ in a detail not shown here. Equal values may be shown once.

What was measured:
[1] = system: Rattus norvegicus; experiment: LC0; higher = less toxic; settings: acute
[2] = system: Cavia porcellus; settings: acute; oral; Guinea Pig
[3] = system: Rattus norvegicus; settings: for NOAEL: reproduction developmental; for NOAEL / LD50: oral, gavage
[4] = system: Coturnix japonica; settings: repeat dose other; oral
[5] = system: Rattus norvegicus; settings: repeat dose other; oral
[6] = system: Mus musculus; settings: oral, M/F
[7] = system: Mus musculus; settings: subchronic, oral; for NOAEL: M/F, CD1, Hepatic
[8] = system: Mus musculus; settings: subchronic; duration: 90 days; oral; drinking water; M/F; CD1; immunological, hepatic
[9] = system: Rattus norvegicus
[10] = system: Oryctolagus sp.; settings: acute; dermal; occlusive; New Zealand
[11] = system: Microhyla ornata; settings: short-term, whole body
[12] = system: Rattus norvegicus; settings: chronic; inhalation; M/F; nasal epithelial lesions
[13] = system: Mus musculus; settings: chronic; duration: 104 weeks; inhalation; intermittent; Nasal cavity: Lesions
[14] = system: Rattus norvegicus; settings: chronic; duration: 2 years; oral; drinking water; Kidney: Altered weight + Whole body: Altered weight
[15] = system: Canidae; settings: acute; duration: 10 minutes; inhalation; unknown; Dog Other; Whole Body: Seizures
[16] = system: Rattus norvegicus; settings: inhalation
[17] = subchronic, drinking water, clinical serum chemistry (effects on erythrocytes and reduced humoral immune status)
[18] = chronic, duration: 104 weeks, diet, reduced hemoglobin and erythrocyte destruction
[19] = subchronic, gavage, dyspnea, abnormal appearance, liver enlargement
[20] = reproduction developmental, duration: 9 days, F, Crl:CD(SD), generation: P0, P0: Skin: Stained Fur + P0: Whole Body: Body Weight Change + P0: Whole Body: Convulsions + P0: Whole Body: Feed Consumption, Absolute
[21] = reproduction developmental, duration: 9 days, M/F, Crl:CD(SD), generation: F1, F1: Whole Body: Pup Weight Relative to Litter
[22] = reproduction developmental, duration: 107 days, M, Crj:CD, generation: P0, P0: Whole Body: Clonic Seizures + P0: Whole Body: Mortality
[23] = reproduction developmental, duration: 121 days, F, Crl:CD(SD), generation: P0, P0: Liver: Liver Weight, Absolute + P0: Liver: Liver Weight, Relative + P0: Pituitary: Pituitary Gland Weight, Absolute + P0: Pituitary: …
[24] = subchronic, duration: 90 days, F, Crl:CD(SD) BR, Blood: Albumin (A) + Renal: Urine Osmolality + Renal: Urine Volume (UVOL) + Whole Body: Motor Activity
[25] = subchronic, duration: 90 days, F, Crl:CD(SD) BR, Central Nervous System: Abnormal Behavior
[26] = subchronic, duration: 90 days, M, Crl:CD(SD) BR, Blood: Albumin (A) + Whole Body: Motor Activity
[27] = subchronic, duration: 90 days, M, Crl:CD(SD) BR, Central Nervous System: Abnormal Behavior

Nc1ccc(C=Cc2ccc(N)cc2S(=O)(=O)O)c(S(=O)(=O)O)c1 [4,4'-Diamino-2,2'-stilbenedisulfonic acid]
LC0 ([1]; oral, Sprague-Dawley): 3000 mg/kg | LD50 [2]: 47000 mg/kg | NOAEL ([3]; Sprague-Dawley, generation: F0): 1000 mg/kg-day | NOAEL ([3]; Sprague-Dawley, generation: F1): 1000 mg/kg-day

CC(=O)[O-].CC(=O)[O-].[Pb+2] [Lead acetate]
LOAEL [4]: 11.3 mg/kg-day | NOAEL [4]: 1.13 mg/kg-day | LOAEL [5]: 80 mg/kg-day | NOAEL [5]: 8 mg/kg-day

ClCC(Cl)Cl [1,1,2-Trichloroethane]
LOAEL [6, 17]: 44 mg/kg-day | NOAEL [6, 17]: 3.9 mg/kg-day | NOAEL ([7]; duration: 90 days, drinking water, Other): 3.9 mg/kg-day | NOAEL [8]: 3.9 mg/kg-day | LOAEL ([9]; acute, duration: 4 hours, inhalation, whole body, M/F, Fischer 344, respiratory): 316 mg/m3 | NOAEL ([9]; acute, duration: 1 days, oral, gavage, M, Sprague-Dawley, hepatic): 46 mg/kg-day

CC(CCl)OC(C)CCl (stereo not given) [bis(2-Chloro-1-methylethyl) ether]
LOAEL [6, 18]: 198 mg/kg-day | NOAEL [6, 18]: 35.8 mg/kg-day | LOAEL ([7]; duration: 13 weeks, gavage, M, SPF-ICR): 9.69 mg/kg-day

Cc1cccnc1 [3-Methylpyridine]
LC0 ([1]; inhalation, Crl:CD(SD) BR): ≥ 4950 mg/m3 and ≤ 12600 mg/m3 | LD50 [10]: ≥ 126 mg/kg and ≤ 200 mg/kg | LC50 ([3]; acute, inhalation, Sprague-Dawley): < 11.8 mg/mL | LD50 ([3]; acute, Fischer 344): 630 mg/kg | LD50 ([3]; acute, Sprague-Dawley): 710 mg/kg | LOAEL ([3]; short-term, duration: 2 weeks, inhalation, Crl:CD(SD) BR): 1100 mg/m3

Clc1ccc2ccccc2c1 [2-Chloronaphthalene]
LOAEL [6, 19]: 600 mg/kg-day | NOAEL [6, 19]: 250 mg/kg-day | NOAEL ([7]; duration: 13 weeks, gavage, Respiratory): 250 mg/kg-day

Cc1cc(C(C)(C)c2cc(C)c(O)c(C)c2)cc(C)c1O [4,4'-Propane-2,2-diylbis(2,6-dimethylphenol)]
LOEL ([11]; duration: 9 day, M/F, DNA fragmentation): 1 µM | LOEL ([11]; duration: 11 day, EGFP activitiy): 1 µM

C=COC(C)=O [Vinyl acetate]
LOAEL [12]: 704 mg/m3 | NOAEL [12]: 176 mg/m3 | NOAEL ([9]; chronic, duration: 104 weeks, inhalation, whole body, M/F, Crl:CD(SD)BR Sprague-Dawley, respiratory): 174 mg/m3 | NOAEL ([9]; short-term, duration: 4 weeks, inhalation, whole body, M, Sprague-Dawley (Crl:CD BR), respiratory): 703 mg/m3 | NOAEL ([9]; short-term, duration: 5 days, inhalation, whole body, M, Sprague-Dawley (Crl:CD BR), respiratory): 703 mg/m3 | NOAEL [13]: 176 mg/m3 | NOAEL [14]: 100 mg/kg-day

FC(C(F)C(F)(F)C(F)(F)F)C(F)(F)F (stereo not given) [2H,3H-Decafluoropentane]
LOAEL [15]: 103000 mg/m3 | NOAEL [15]: 51500 mg/m3 | NOAEL ([16]; reproduction developmental, duration: 9 days, F, Crl:CD(SD), generation: P0, P0: Ovary: Corpora Lutea + P0: Uterus: Implantation + P0: Uterus: Uterine Weight, Gravid): 35800 mg/m3 | LOAEL [16, 20]: 20000 mg/m3 | NOAEL [16, 20]: 5170 mg/m3 | NOAEL ([16]; reproduction developmental, duration: 9 days, M/F, Crl:CD(SD), generation: F1, F1: Multi-Organ: Soft Tissue Examinations + F1: Skeleton: Skeletal Examinations + F1: Uterus: Resorptions, Early + F1: Uterus: Resorptions, …): 35800 mg/m3 | LOAEL [16, 21]: 35800 mg/m3 | NOAEL [16, 21]: 20000 mg/m3 | NOAEL ([16]; reproduction developmental, duration: 107 days, M, Crj:CD, generation: P0, P0: Liver: Liver Weight, Absolute + P0: Liver: Liver Weight, Relative + P0: Pituitary: Pituitary Gland Weight, Absolute + P0: Pituitary: …): 36100 mg/m3 | LOAEL [16, 22]: 36100 mg/m3 | NOAEL [16, 22]: 20600 mg/m3 | LOAEL [16, 23]: 36100 mg/m3 | NOAEL [16, 23]: 20600 mg/m3 | NOAEL ([16]; reproduction developmental, duration: 121 days, F, Crl:CD(SD), generation: P0, P0: Uterus: Implantation + P0: Whole Body: Fertility Index + P0: Whole Body: Maternal Body Weight + P0: Whole Body: Maternal Body Weight …): 36100 mg/m3 | NOAEL ([16]; reproduction developmental, duration: 121 days, M/F, Crl:CD(SD), generation: F1, F1: Whole Body: Necropsy Appeared Normal + F1: Whole Body: Pup Weight Relative to Litter + F1: Whole Body: Survival + F1: Whole Body: …): 36100 mg/m3 | NOAEL ([16]; subchronic, duration: 90 days, F, Crl:CD(SD) BR, Adrenal: Adrenal Gland Histopathology + Adrenal: Adrenal Gland Weight, Absolute + Adrenal: Adrenal Gland Weight, Relative + Brain: Brain …): 36100 mg/m3 | LOAEL [16, 24]: 36100 mg/m3 | NOAEL [16, 24]: 20600 mg/m3 | LOAEL [16, 25]: 20600 mg/m3 | NOAEL [16, 25]: 5150 mg/m3 | NOAEL ([16]; subchronic, duration: 90 days, M, Crl:CD(SD) BR, Adrenal: Adrenal Gland Histopathology + Adrenal: Adrenal Gland Weight, Absolute + Adrenal: Adrenal Gland Weight, Relative + Brain: Brain …): 36100 mg/m3 | LOAEL [16, 26]: 36100 mg/m3 | NOAEL [16, 26]: 20600 mg/m3 | LOAEL [16, 27]: 20600 mg/m3 | NOAEL [16, 27]: 5150 mg/m3
